Reference: patent publication US20260234173A1, “STRUCTURED MOLECULAR VECTORS FOR ANTI-INFLAMMATORY COMPOUNDS AND USES THEREOF” (Universite Claude Bernard Lyon 1, priority 2019, published 2026)

How the values were obtained:
[1] = system: epileptic rats (post Pilo-SE); experiment: Morris water maze (MWM) spatial learning in epileptic rats; type: in vivo, rat; conditions: epileptic rats injected during the first week post-SE, tested 5 weeks post-SE, versus saline
Description: All injected solutions were prepared in sterile saline (0.9% w/v). At weaning (postnatal day 20 (P20)), Sprague-Dawley male rat pups were first injected i.p. with lithium chloride (127 mg/Kg; Sigma-Aldrich), to decrease the dose of pilocarpine needed to trigger Status Epilepticus (SE). Scopolamine methylnitrate (1 mg/Kg; Sigma-Aldrich) was injected s.c. 18 h later, to alleviate peripheral cholinergic adverse side effects. Pilocarpine hydrochloride (25 mg/Kg; Sigma-Aldrich) was injected i.p. 30 min later, to induce SE. After 30 min of continuous behavioral SE, diazepam (Valium®, Roche) was injected i.p. at 10 mg/Kg, to promote survival and initiate cessation of behavioral seizures, that completely stopped after a second s.c. injection of diazepam, given 90 min later at the dose of 5 mg/Kg. The rats were placed on a heated pad, under continuous observation, until they recovered from sedation. Following recovery, the rats were returned to the nursing mother until P23. Control rats only received saline injections. […]
Spatial learning ability was measured at 5 weeks post-SE by the Morris water maze (MWM). […]
The statistical analyses were performed using SigmaPlot software version 12. […] For MWM test, data were analyzed by two-way repeated measures ANOVA followed by Fisher LSD post hoc tests to compare differences between groups at several time points.

[2] = system: fully amygdala-kindled rats; experiment: Seizure severity in fully amygdala-kindled rats (Racine's scale); type: in vivo, rat
Description: All animal procedures were in compliance with the guidelines of the European Union (directive 2010-63), regulating animal experimentation, and have been approved by the ethical committee of the Claude Bernard Lyon 1 University. Male Sprague-Dawley rats (Envigo, France) were used in these experiments. They were housed in a temperature-controlled room (23±1° C.) under diurnal lighting conditions (lights on from 6 a.m to 6 p.m). Rats arrived 15 days prior to the beginning of the experiments. They were maintained in groups of 2 in 800 cm2 plastic cages comprising minimal environmental enrichment (nesting cardboard material, wooden gnowing sticks), and had free access to food and water.
For surgical implantation of kindling electrodes, rats weighing 220-240 g were anesthetized using isoflurane (5% induction; 2% maintenance) and treated with the analgesic drug buprenorphine (0.050 mg/kg, i.m.). Their heads were positioned in a stereotaxic apparatus with the incisor bar set at −3.3 mm. Burr holes were drilled for the placement of three stainless steel jewelers' screws in the left parietal, right frontal and occipital bones, and over the site of implantation of the electrode used for amygdala kindling. This stimulation and recording electrode consisted of a teflon-isolated bipolar stainless-steel electrode aimed at the right basolateral amygdala (stereotaxic coordinates relative to Bregma: anterior-posterior, −2.8 mm; lateral, +4.8 mm; dorso-ventral, −8.5 mm). The screws placed above the parietal cortex and the frontal cortex served as recording electrodes, and the placed above the cerebellum served as grounding. Bipolar, recording and grounding electrodes were connected to a plug anchored to the skull with dental acrylic cement.
Electrical stimulation via the kindling electrode was initiated after a recovery period of 1 week after surgery, and was performed at the same time of the day (between 9:00 and 11:00 A.M. and then between 4:00 and 6:00 P.M.) to avoid intraday variance between animals. Constant current stimulations (500 μA, biphasic square-wave pulses, 50 pulses/s for 2 s) were delivered twice daily until at least 5 fully kindled seizures (secondarily generalized stage 5 seizures) were elicited. Seizure severity was classified behaviorally according to Racine's scale: stage 1, immobility, slight facial clonus (eye closure, twitching of vibrissae, sniffing); stage 2, head nodding associated with more severe facial clonus; stage 3, clonus of one forelimb; stage 4, rearing, often accompanied by bilateral forelimb clonus; stage 5, tonic-clonic seizure accompanied by loss of balance and falling.
To evaluate the effect of SYN-PN on seizure severity, SYN-PN was prepared in saline and injected intraperitoneally at 5, 10 or 50 mg/kg, 45 min prior to electrical stimulation in fully kindled rats. Briefly, the day after the last stage 5 seizure, on day 1, the rats received a first dose of SYN-PN (5 mg/kg) and were stimulated 45 minutes later. At D2 and D5, they were stimulated without SYN-PN injection to evaluate the residual effect of the 5 mg/kg dose. On D6, they received a second dose of SYN-PN (10 mg/kg) and were stimulated 45 minutes later. They were then simulated at D7 and D8 to evaluate the residual effect of the 10 mg/kg dose. On D9, rats received a third dose of SYN-PN (50 mg/kg) and were stimulated 45 minutes later. They were then simulated at D10 and D11 to evaluate the residual effect of the 50 mg/kg dose. Finally, they received 1) a daily dose of SYN-PN at 5 mg/kg from D12 to D15 and were stimulated at D16; 2) a daily dose of SYN-PN at 10 mg/kg from D19 to D22 and were stimulated at D23; and 3) a daily dose of SYN-PN at 20 mg/kg from D26 to D29 and were stimulated at D30. The treatments were then stopped. However, to assess the persistence of the effects of this series of treatments, rats continued to be stimulated at 7, 15, 42 and 56 days after the last treatment at 20 mg/kg.

CCC=CCC=CCC=CCC=CCC=CCC=CCCC(=O)NCCP(=O)(O)O [synaptamide phosphonate]
spatial learning in MWM (latency to find the platform) [1]: increased average latency to find the platform
rats with absence of seizures 15 days after stopping treatment ([2]; all rats (n=15)): 7/15
decrease of mean seizure severity ([2]; all rats (n=15), D1, 5 mg/kg i.p. 45 min before stimulation): 19.0±7.9%
seizure severity compared to D0 ([2]; all rats (n=15), D2, day after 5 mg/kg, no injection): −23.1±8.1%
effect of 5 mg/kg on seizure severity at D5 ([2]; all rats (n=15), D5, no injection): lost
seizure severity compared to D0 ([2]; all rats (n=15), D6, 10 mg/kg i.p. 45 minutes before stimulation): not significantly different from that at D0
seizure severity compared to D0 ([2]; all rats (n=15), D16, after daily 5 mg/kg from D12): −42.0±9.2%
seizure severity compared to D0 ([2]; all rats (n=15), the next day and the day after 10 mg/kg (D7-D8), at the most): −39.4±11.1%
delay of the maximum effect on seizure severity after administration ([2]; any dose): 24 to 48 h
rats responding to 5 mg/kg ([2]; decrease in seizure severity first observed at 5 mg/kg i.p.): 8/15
rats responding to 10 mg/kg ([2]; decrease in seizure severity first observed at 10 mg/kg i.p.): 3/15
rats responding to 50 mg/kg ([2]; decrease in seizure severity first observed at 50 mg/kg i.p.): 4/15
seizure severity compared to D0 ([2]; rats responding to 5 mg/kg (n=8), D16 after daily 5 mg/kg): −87.0±13.0%
seizure severity compared to D0 ([2]; rats responding to 5 mg/kg (n=8), same day of administration): −36.4±11.7%
average severity of seizures on increasing the daily dose from 5 to 10, then to 20 mg/kg ([2]; rats responding to 5 mg/kg, 4 daily doses each): did not change the average severity of seizures
rats remaining at stage 0 ([2]; rats responding to 5 mg/kg, D16 after daily 5 mg/kg): 7/8
rats free from seizures ([2]; rats responding to 5 mg/kg, after 4 daily doses of 5 mg/kg): 7/8
rats free from seizures ([2]; rats responding to 5 mg/kg, after 4 daily doses of 10 mg/kg): 4/8
decrease of seizure severity compared to D0 ([2]; rats responding to 10 mg/kg (n=3)): not significantly different from DO
severity reduction at D16 ([2]; rats responding to 10 mg/kg (n=3), after 5 mg/kg for 4 days): maintained
decrease of seizure severity compared to D0 ([2]; rats responding to 50 mg/kg (n=4)): too variable to observe a significant effect
seizure reduction at D16 ([2]; rats responding to 50 mg/kg (n=4), after 5 mg/kg for 4 days): only transient and lost at D16
duration of the protective effect against seizures after stopping treatment ([2]; rats responding to 50 mg/kg, after high doses (20 mg/kg)): up to 15 days
persistence of seizure freedom after stopping treatment ([2]; substantial population of rats): free of seizures, even after almost two months of stopping treatment
